Assay results published in PubChem BioAssay AID2060506 (Molecular Pharmacology Branch, DTP, NCI, 2025).

Test system: 598228-144-R-J1-PDC complex spheroid viability
Assay: Anticancer human tumor 598228-144-R-J1-PDC patient-derived serous endometrial adenocarcinoma cell line growth inhibition [GQUAD]
Details: for IC50: curve of first compound; for viability, T/C: stronger effect = lower value
Summary of the method: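 Viability of tumor cells grown as complex spheroids with endothelial and stromal cells, exposed to drug combinations. Top concentration at or near clinical Cmax (else 10 microM), diluted in half-log increments.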

[1] = second compound 0.0316 µM, first compound 0.0316 µM
[2] = second compound 0.0316 µM, first compound 0.1 µM
[3] = second compound 0.0316 µM, first compound 0.316 µM
[4] = second compound 0.0316 µM, first compound 1 µM
[5] = second compound 0.0316 µM, first compound 3.16 µM
[6] = second compound 0.0316 µM, first compound 10 µM
[7] = second compound 0.1 µM, first compound 0.0316 µM
[8] = second compound 0.1 µM, first compound 0.1 µM
[9] = second compound 0.1 µM, first compound 0.316 µM
[10] = second compound 0.1 µM, first compound 1 µM
[11] = second compound 0.1 µM, first compound 3.16 µM
[12] = second compound 0.1 µM, first compound 10 µM
[13] = second compound 0.316 µM, first compound 0.0316 µM
[14] = second compound 0.316 µM, first compound 0.1 µM
[15] = second compound 0.316 µM, first compound 0.316 µM
[16] = second compound 0.316 µM, first compound 1 µM
[17] = second compound 0.316 µM, first compound 3.16 µM
[18] = second compound 0.316 µM, first compound 10 µM
[19] = second compound 1 µM, first compound 0.0316 µM
[20] = second compound 1 µM, first compound 0.1 µM
[21] = second compound 1 µM, first compound 0.316 µM
[22] = second compound 1 µM, first compound 1 µM
[23] = second compound 1 µM, first compound 3.16 µM
[24] = second compound 1 µM, first compound 10 µM
[25] = second compound 3.16 µM, first compound 0.0316 µM
[26] = second compound 3.16 µM, first compound 0.1 µM
[27] = second compound 3.16 µM, first compound 0.316 µM
[28] = second compound 3.16 µM, first compound 1 µM
[29] = second compound 3.16 µM, first compound 3.16 µM
[30] = second compound 3.16 µM, first compound 10 µM
[31] = second compound 10 µM, first compound 0.0316 µM
[32] = second compound 10 µM, first compound 0.1 µM
[33] = second compound 10 µM, first compound 0.316 µM
[34] = second compound 10 µM, first compound 1 µM
[35] = second compound 10 µM, first compound 3.16 µM
[36] = second compound 10 µM, first compound 10 µM
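Further: spheroids exposed to the agents for one week before reading.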
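Wherever viability, T/C is given: percent of vehicle DMSO control viability so 100% = untreated growth.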

Structure (SMILES): COc1cccc2c1C(=O)c1c(O)c3c(c(O)c1C2=O)CC(O)(C(=O)CO)CC3OC1CC(N)C(O)C(C)O1 (centres undefined) + Cc1[nH]c2ccc(F)cc2c1-c1nc2c3cccnc3c3ncccc3c2[nH]1
- IC50 (second compound 0.0316 µM): 658 nM
- IC50 (second compound 0.1 µM): 889 nM
- IC50 (second compound 0.316 µM): 1040 nM
- IC50 (second compound 1 µM): 418 nM
- IC50 (second compound 3.16 µM): < 31.6 nM
- IC50 (second compound 10 µM): 646 nM
- viability, T/C [1]: 97.1%
- viability, T/C [2]: 81.6%
- viability, T/C [3]: 69.8%
- viability, T/C [4]: 42.8%
- viability, T/C [5]: 5.14%
- viability, T/C [6]: 0.27%
- viability, T/C [7]: 88.7%
- viability, T/C [8]: 77.2%
- viability, T/C [9]: 78.6%
- viability, T/C [10]: 47%
- viability, T/C [11]: 2.77%
- viability, T/C [12]: 0.42%
- viability, T/C [13]: 84.7%
- viability, T/C [14]: 72.8%
- viability, T/C [15]: 74.7%
- viability, T/C [16]: 51.9%
- viability, T/C [17]: 3.76%
- viability, T/C [18]: 1.38%
- viability, T/C [19]: 67.3%
- viability, T/C [20]: 48.8%
- viability, T/C [21]: 54.3%
- viability, T/C [22]: 34.7%
- viability, T/C [23]: 4.19%
- viability, T/C [24]: 1.39%
- viability, T/C [25]: 38.9%
- viability, T/C [26]: 36.8%
- viability, T/C [27]: 31.8%
- viability, T/C [28]: 25.4%
- viability, T/C [29]: 1.9%
- viability, T/C [30]: 1.11%
- viability, T/C [31]: 57.1%
- viability, T/C [32]: 72.3%
- viability, T/C [33]: 49%
- viability, T/C [34]: 46.1%
- viability, T/C [35]: 5.49%
- viability, T/C [36]: 0.68%

Structure (SMILES): Cc1cccc(N(C)C(=O)C2C(O)CCN2c2nc(C)cc(C(F)(F)F)c2C#N)c1 (centres undefined) + Cc1[nH]c2ccc(F)cc2c1-c1nc2c3cccnc3c3ncccc3c2[nH]1
- IC50 (second compound 0.0316 µM): > 10000 nM
- IC50 (second compound 0.1 µM): > 10000 nM
- IC50 (second compound 0.316 µM): > 10000 nM
- IC50 (second compound 1 µM): > 10000 nM
- IC50 (second compound 3.16 µM): < 31.6 nM
- IC50 (second compound 10 µM): > 10000 nM
- viability, T/C [1]: 114%
- viability, T/C [2]: 113%
- viability, T/C [3]: 112%
- viability, T/C [4]: 82%
- viability, T/C [5]: 104%
- viability, T/C [6]: 100%
- viability, T/C [7]: 110%
- viability, T/C [8]: 112%
- viability, T/C [9]: 98%
- viability, T/C [10]: 94.1%
- viability, T/C [11]: 104%
- viability, T/C [12]: 81.7%
- viability, T/C [13]: 99.8%
- viability, T/C [14]: 90.3%
- viability, T/C [15]: 80.9%
- viability, T/C [16]: 79.2%
- viability, T/C [17]: 83.9%
- viability, T/C [18]: 92.7%
- viability, T/C [19]: 58.6%
- viability, T/C [20]: 52.7%
- viability, T/C [21]: 56.2%
- viability, T/C [22]: 45%
- viability, T/C [23]: 71.1%
- viability, T/C [24]: 57.7%
- viability, T/C [25]: 40.8%
- viability, T/C [26]: 45.4%
- viability, T/C [27]: 52.6%
- viability, T/C [28]: 34.9%
- viability, T/C [29]: 39.5%
- viability, T/C [30]: 36.1%
- viability, T/C [31]: 68.4%
- viability, T/C [32]: 44.8%
- viability, T/C [33]: 53.5%
- viability, T/C [34]: 67.3%
- viability, T/C [35]: 58%
- viability, T/C [36]: 61.6%
